Measurements published in PMC10069031 (European Journal of Medical Research, 2023).

Legend:
TAM-associated genes = experiment: qRT-PCR of TAM-associated genes in CT26 tumors; format: in vivo, mouse; details: REG(V1) vs V1, qRT-PCR
AKT = experiment: Inhibition of AKT activation in CSF1-stimulated RAW264.7 cells (western blot); format: cell-based, mouse; details: Mus musculus, mean ± SD (replicates), read-out: Mean kinase IC50 values: P(S473)AKT [WB]
Description: RAW264.7 cells (10^6) were seeded into cell culture dishes 6 cm in diameter and incubated in 4 mL RPMI/10% fetal bovine serum (Biochrom) for 24 h at 37 °C in a humidified 5% CO2 atmosphere. Cells were washed once with phosphate-buffered saline (PBS) and starved in 3 mL RPMI/0.1% bovine serum albumin for another 24 h. Cells were then treated for 1 h at 37 °C with drugs at the indicated final concentrations, with 0.5% DMSO as vehicle control, or left untreated, and finally stimulated for 2 min at 37 °C with 100 ng/mL recombinant mouse CSF1 (R&D Systems) by adding 1 mL prewarmed starving medium containing 400 ng/mL CSF1. Dishes were placed on ice and cells were immediately washed with ice-cold PBS and lysed with 50 µL lysis buffer (50 mM HEPES pH 7.5, 150 mM NaCl, 1.5 mM MgCl2, 10% glycerol, 1% Triton X-100, 0.5% desoxycholate, 0.2% sodium dodecyl sulfate, 1 mM ethylene glycol-bis[β-aminoethyl ether]-N,N,N′,N′-tetraacetic acid, 100 mM NaF, 10 mM Na4P2O7, 1 mM Na3VO4, 1% Phosphatase Inhibitor Cocktail 3 [Sigma-Aldrich], 1 mM phenylmethyl sulfonyl fluoride, Complete Protease Inhibitor Cocktail [Roche CustomBiotech; 1 tablet/10 mL], and 50 U/mL Benzonase [Sigma-Aldrich]). Lysed cells were scraped into Eppendorf tubes, incubated on ice for 20 min, and centrifuged at 4 °C for 10 min at 13,000 rpm; supernatants (lysates) were transferred into new tubes and stored at −80 °C.
Protein concentrations were determined using Pierce bicinchoninic acid assay (Thermo Fisher Scientific) and 40 µg/lane of total lysate was separated by SDS-PAGE on 4–12% Criterion XT Bis–Tris Gels (Bio-Rad) and subsequently transferred to polyvinylidene difluoride membranes using the Trans Blot Turbo Blotting System (Bio-Rad). For antigen detection, membranes were blocked with PBS Odyssey blocking reagent (LI-COR Biosciences) for 1 h at room temperature (RT). Primary antibodies were incubated overnight at 4 °C and the fluorescent secondary antibodies were incubated for 1 h at RT. After each antibody incubation, blots were washed with PBS with 0.05% Tween 20 (Carl Roth) for 15–30 min at RT. Fluorescent signals were quantitatively captured using the Odyssey DLx Infrared Imaging System (LI-COR Biosciences) and the half-maximal inhibitory concentration (IC50) values were calculated using GraphPad software (version 7 or newer).

IC50 (AKT): 141 ± 59 nM
Structure (SMILES): CNC(=O)c1cc(Oc2ccc(NC(=O)Nc3ccc(Cl)c(C(F)(F)F)c3)c(F)c2)ccn1 [REG, Regorafenib]
transcript frequency of Adgre1 (F4/80) (TAM-associated genes): significantly reduced | transcript frequency of Arg1 (TAM-associated genes): unchanged | transcript frequency of CSF1R (TAM-associated genes): significantly reduced | transcript frequency of Hilpda (TAM-associated genes): unchanged | transcript frequency of Maf (TAM-associated genes): reduced | transcript frequency of MafB (TAM-associated genes): unchanged | transcript frequency of Mgl2 (TAM-associated genes): reduced | transcript frequency of Mrc1 (CD206) (TAM-associated genes): significantly reduced | transcript frequency of Nos2 (TAM-associated genes): unchanged | transcript frequency of VEGFA (TAM-associated genes): unchanged
